Reference: PubChem BioAssay (NCI)
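Results reflect a 48-hour exposure of cells in 96-well plates to compound at five concentrations. GI50: concentration for 50% inhibition of growth. At the TGI there is no net growth.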

Experiments:
Assay in all cases: DTP human tumour cell line panel, 48 h
MDA-MB-435 = test system: MDA-MB-435
A549 NSCLC = test system: A549 NSCLC
RXF 393 renal = test system: RXF 393 renal
KM12 colon = test system: KM12 colon
HL-60(TB) leukemia = test system: HL-60(TB) leukemia
U251 CNS = test system: U251 CNS
HS 578T breast = test system: HS 578T breast
MCF7 breast = test system: MCF7 breast
MDA-MB-231 breast = test system: MDA-MB-231 breast
OVCAR-8 ovarian = test system: OVCAR-8 ovarian

Row | Structure (SMILES) | TGI (MDA-MB-435) [µM] | TGI (A549 NSCLC) [µM] | TGI (RXF 393 renal) [µM] | TGI (KM12 colon) [µM] | TGI (HL-60(TB) leukemia) [µM] | TGI (U251 CNS) [µM] | TGI (HS 578T breast) [µM] | TGI (MCF7 breast) [µM] | TGI (MDA-MB-231 breast) [µM] | TGI (OVCAR-8 ovarian) [µM] | GI50 (MDA-MB-435) [µM] | GI50 (A549 NSCLC) [µM] | GI50 (RXF 393 renal) [µM] | GI50 (KM12 colon) [µM] | GI50 (MDA-MB-231 breast) [µM] | GI50 (OVCAR-8 ovarian) [µM] | GI50 (U251 CNS) [µM] | GI50 (HS 578T breast) [µM] | GI50 (MCF7 breast) [µM]
1 | C=C[C@@H]1C(CO)=CCC2[C@H]1CCC1C(C)(C)C(=O)CC[C@]21C (stereo not given in full) | > 100 | > 100 | > 100 | > 100 | > 100 | > 100 | > 100 | > 100 |  |  |  |  |  |  |  |  |  |  | 
2 | COc1cc(C2CC(C)(Nc3ccccc3)Oc3cc4c(cc32)OCO4)cc(OC)c1OC (stereo not given) | 0.0688 | > 100 | > 100 | > 37.5 |  | 17.2 | > 100 | > 51.5 | 4.34 | > 100 |  |  |  |  |  |  |  |  | 
3 | O=C(c1cc2ccccc2cc1O)N1CCCCC1 | > 100 |  | > 100 | > 100 | 46.9 | > 100 | > 100 | > 100 | > 100 | > 100 |  |  |  |  |  |  |  |  | 
4 | CCN(C(=S)N[C@@H](Cc1ccccc1)C(=O)N[C@@H](CC(C)C)C(=O)OC)c1ccccc1 | > 100 | > 100 | > 100 | > 100 |  | > 100 |  | > 100 | > 100 | > 100 |  |  |  |  |  |  |  |  | 
5 | COCOc1ccc(Cn2c(=O)n(C)c(=O)c3c2ncn3C)cc1[N+](=O)[O-] |  | > 100 | > 100 | > 100 | > 100 | > 100 |  |  |  | > 100 |  |  |  |  |  |  |  |  | 
6 | c1ccc2sc(SCSc3nc4ccccc4s3)nc2c1 | > 100 | > 100 | > 100 | > 100 |  | > 100 | > 100 |  | > 100 | > 100 |  |  |  |  |  |  |  |  | 
7 | COc1cc([N+](=O)[O-])c(OC)cc1-c1nc2sc(Cl)cn2c1/C=N/Nc1ccccn1 | > 50 | > 50 | 26.2 | > 50 |  | 14.3 | > 50 | 32 | 30.7 | > 50 | > 50 | > 50 | 12.6 | > 50 | 8.61 | 17.3 | 7.65 | 16.8 | 11.1
8 | CCOC(=O)NC(=S)NN(C)C1=NCC(C)(C)S1 | > 100 | > 100 | > 100 | > 100 | > 100 | > 100 | > 100 | > 100 | > 100 |  |  |  |  |  |  |  |  |  | 
9 | Brc1cccc(Nc2nc(-c3cccs3)nc3ccc(Br)cc23)c1 | 37.2 | > 100 |  | 46.3 | > 100 | > 100 | > 100 | > 100 | 64.6 | > 100 |  |  |  |  |  |  |  |  | 
10 | O=[N+]([O-])/C(C(Cl)=C(Cl)Cl)=C(\Nc1cccc2cccnc12)SCc1ccccc1 | 37.7 | 88.4 |  | 50.4 |  | 33.2 | 19.3 | 36.5 | > 100 |  |  |  |  |  |  |  |  |  | 
11 | C=CCNC(=S)/N=C/c1c(O)c2ccccc2oc1=O |  | > 100 | 85.8 | > 100 | > 100 | > 100 |  |  |  | > 100 |  |  |  |  |  |  |  |  | 
12 | Cc1c(S(=O)(=O)/N=C(\N)Nc2ccc(Cl)cc2)sc2ccc(Cl)cc12 |  | 46.8 | > 100 | > 100 | 63.5 | 30.3 | 59 | 35.8 | 32.9 | 38.9 |  |  |  |  |  |  |  |  | 
13 | O=C(/C=C/c1ccsc1)c1ccsc1 | 42.4 | > 100 |  | 37.7 | 40.6 | 37.7 | > 100 | 32.4 | 42.4 | 85.6 |  |  |  |  |  |  |  |  | 
14 | CCOC(=O)c1c(-c2ccc(OC)cc2)c(C#N)c(=S)n(C2OC(COC(C)=O)C(OC(C)=O)C(OC(C)=O)C2OC(C)=O)c1C (stereo not given) | > 100 | > 100 | > 100 | > 100 | > 100 | > 100 |  | > 100 | > 100 | > 100 |  |  |  |  |  |  |  |  | 
15 | N#C/C(=C\c1cc(Br)c(O)c(Br)c1)c1cccnc1 |  | > 100 | > 100 | > 100 | > 100 | 35.6 |  | > 100 |  | > 100 |  |  |  |  |  |  |  |  | 
16 | O=S(=O)(O)c1cc2ccc1/C=C\c1ccc(cc1S(=O)(=O)O)N=Nc1ccc(c(S(=O)(=O)O)c1)/C=C\c1ccc(cc1S(=O)(=O)O)N=N2 |  | > 100 | > 100 | > 100 | > 100 | > 100 |  | > 100 |  | > 100 |  |  |  |  |  |  |  |  | 
17 | O=C(NCCCN(CCCCN(CCCNC(=O)C(F)(F)F)Cc1ccccc1)Cc1ccccc1)C(F)(F)F | 33.9 | 59.5 | 32.6 | 25.9 | 36.3 |  | 31.4 | 24.7 | 34.1 | 26.9 |  |  |  |  |  |  |  |  | 
18 | c1ccc2c(c1)NC(C1OC3CCCN3C1C1Nc3ccccc3S1)S2 (stereo not given) | > 100 | > 100 | 97 | > 100 | 46.7 | > 100 | > 100 | > 100 |  | > 100 |  |  |  |  |  |  |  |  | 
19 | C/C=C/C=C/c1nc(C#N)c(N)o1 | > 100 | > 100 | > 100 |  |  | > 100 | > 100 | > 100 | > 100 | > 100 |  |  |  |  |  |  |  |  | 
20 | O=C1C[C@H](Sc2ccccc2)C2(OCCO2)[C@@H](Sc2ccccc2)C1 | 7.97 | 28 | 4.25 | 7.36 |  | 6.76 | 5.85 | 6.01 | 5.78 | 8.02 |  |  |  |  |  |  |  |  | 
21 | COc1ccc(CC(O)CN2CCOCC2)cc1 (stereo not given) | > 100 | > 100 | > 100 | > 100 | > 100 | > 100 | > 100 |  | > 100 | > 100 |  |  |  |  |  |  |  |  | 
22 | O=C(N=Nc1cc(Cl)ccc1Cl)NNc1cc(Cl)ccc1Cl | 30 |  | 25 | 33.9 | 32.4 | 31.3 | 52.6 | 36.4 | 40.1 | > 100 |  |  |  |  |  |  |  |  | 
23 | O=C1c2cc3c(cc2CC1Br)CCC3 (stereo not given) | 4.23 | 38.7 | 4.04 | 22.1 | > 20.1 | 8.09 | > 100 |  | 13.9 | 4.04 |  |  |  |  |  |  |  |  | 
